Entries after “also recorded” stand apart in the source; their conditions may differ.
What was measured:
human and porcine sclera = human and porcine sclera in vitro; cited from earlier work
[1] = test system: sclera of enucleated eyes; assay: Ocular inflation model of myopia (enucleated eyes, elevated IOP 85 mmHg); set-up: species or system New Zealand White Rabbits; details: 0.3% soak 5 min, 10 mW/cm^2, 365 nm, 10 min anterior and 10 min posterior
Protocol: Stabilization of ocular shape is evaluated in vitro using pairs of enucleated eyes from young (˜1-2 weeks) New Zealand White Rabbits, one eye treated and the fellow eye as control. To mimic and accelerate aspects of the loading geometry present in vivo, the intact globes are mechanically tested by imposing an elevated intraocular pressure: a syringe connects the intraocular fluid to an elevated reservoir of Dulbecco's phosphate buffered saline (DPBS) while the exterior of the eye is immersed in DPBS at ambient pressure (FIG. 1).
The size and shape of the globes are simultaneously recorded from two orthogonal perspectives over time. To prepare eyes for the tests, the epithelium is optionally removed from the cornea with a cotton swab, and external fat is removed from the globe. (Note that permeation of the photoinitiator into tissue is examined separately below.) The eyes are then soaked in control (Dulbecco's PBS) or treatment solutions (e.g., 0.029 mM Eosin Y, 90 mM TEOA, in DPBS) for 5 min. After soaking, the eyes are patted dry to remove extra solution from the surface, and then irradiated for 5 min from the front and 5 min from the back with, e.g., 34 mW/cm^2 at 500±50 nm for Eosin Y/TEOA. […] Photographs taken every 10 minutes for approximately 24 hours are analyzed to quantify the extension of the cornea and sclera.

porcine sclera sections = assay: Rheometric analysis of sclera sections (modulus pre- and post-treatment); details: photoinitiator alone, compared with photoinitiator plus PEGDM
Description: The ability of initiator with or without crosslinking compounds to strengthen the sclera was initially evaluated using rheometric analysis of tissue sections. Sclera sections (8 mm diameter) were cut from porcine eyes and tested on a TA Instruments AR1000 rheometer (using a cleated parallel plate geometry) to quantify changes in modulus pre- and post-treatment. Two example photoinitiators were selected for initial evaluation.

[2] = after use of topically applied proparacaine (Ehlers et al.); cited from earlier work

SMILES | increase of Young's modulus compared to untreated controls (human and porcine sclera) [%] | further results
O=CCCCC=O [Glutaraldehyde] | 122 | –
CC(C)(O)C(=O)c1ccc(OCCO)cc1 [compound 12959, 2-hydroxy-1-[4-(2-hydroxyethoxy)phenyl]-2-methyl-1-propanone] | – | stabilization of eye shape / sclera under elevated IOP [1]: hold a steady shape; also recorded: stabilize the sclera; increases in modulus (porcine sclera sections): comparable increases in modulus
O=CC(O)CO (stereo not drawn) [glyceraldehyde] | 34 | –
CCCOc1ccc(C(=O)OCCN(CC)CC)cc1N [proparacaine] | – | increases in drug delivery to the aqueous [2]: 4 fold
Cc1cc2nc3c(=O)[nH]c(=O)nc-3n(C[C@H](O)[C@H](O)[C@H](O)CO)c2cc1C [riboflavin-UVA, riboflavin] | 29 | –

— US8414911B2, “Photochemical therapy to affect mechanical and/or chemical properties of body tissue” (The Regents of the University of California, priority 2006, dated 2013)
